Common to all, as to type: cell-based
The test system of assay [1] is Sk-mel-31, a human melanoma cell. The assay can be described thus: Melanin production in Sk-mel-31 cells. The conditions noted are these: human melanoma cell line; versus control group; FIG. 10. On the procedure:
(§1) Cells were cultivated according to the same process as in Experimental Example 6, and centrifuged (100×g) for 10 minutes to harvest the cells. In order to measure the production of melanin, 200 μg of the cell extract was added to 1 N NaOH (total 1 ml), allowed to stand at room temperature for 30 minutes, and then, absorbance was measured at 400 nm.
(§2) In order to measure the production of melanin, the cells were cultivated and harvested according to the same process as that of Experimental Example 6, and the production of melanin was measured according to the same process as that of Experimental Example 8.

Assay [2] deals with B16F10, a mouse melanoma cell. The assay can be described thus: Melanin production in B16F10 cells. The conditions noted are these: mouse melanoma cell line; versus control group; FIG. 10. On the procedure:
as §1, §2

Assay [3] has as its system Mouse embryo fibroblasts NIH 3T3. The assay can be described thus: MTT cell proliferation assay in NIH 3T3 fibroblasts. On the procedure: Mouse embryo fibroblasts NIH 3T3 were cultivated in an incubator at 37° C. ([…], 5% CO2 and 60% humidity) while maintaining a density of 2×10^6 or 4×10^6 cells/ml in Dulbecco's modified Eagle's media (DMEM) supplemented with 10% fetal bovine serum (FBS) and 1% penicillin-streptomycin. Cell proliferation was measured by using MTT [3-(3,5-dimethyl-thiazol-2-yl)-2,5-diphenyltetrazolium bromide] assay. For MTT assay, the cells were plated in a 96-well plate at 2×10^3 cells/ml per well, and treated with a culture medium supplemented with 10% FBS. The cells were stabilized in the incubator for 24 hours, the culture medium supplemented with FBS was replaced by FBS-free DMEM, and the cells were treated with mixed rare earth elements of 10 μg, 1 μg, 100 ng, 10 ng, 1 ng, 100 pg, 10 pg and 1 pg, respectively, and individual rare earth elements of 10 ng. Then, the cells were cultivated for a given time, 50 μl per well of MTT (2 mg/l ml sterilized distilled water) was added thereto, and the mixture was reacted for 4 hours. The reaction mixture was treated with DMSO (dimethyl sulfoxide) and shaken for 30 minutes. Absorbance was measured at 540 nm using an ELISA reader (550, Bio-rad).

The subject of assay [4] is tyrosinase. The assay can be described thus: Expression of tyrosinase in Sk-mel-31 cells by Western blotting. The settings on record: human melanoma cell line; versus control group; FIG. 9. On the procedure:
(§3) Cells were cultivated according to the same process as in Experimental Example 6, and centrifuged (100×g) for 10 minutes to harvest the cells. In order to measure the expression of tyrosinase by Western blotting, 100 μg of the cell extract was resolved on 10% SDS-PAGE, transferred to NC, and then, blocked with TBS containing 5% skim milk. Then, it was reacted with a primary antibody diluted to 1:2,500 (monoclonal anti-tyrosine hydroxylase clone Th-2) and a secondary antibody diluted to 1:5,000 (anti-mouse IgG), respectively, and washed with TBS containing 0.2% Tween-20, and then, photosensitized on an X-ray film using an ECL detection kit. Then, OD values were graphed using an image analysis program of LabWork™ (version 4.4.00.0).
Background: Immunoblotting shows a protein as a band on a membrane.

For assay [5], the target named is T1, tyrosinase (Homo sapiens, UniProt P14679).
T1 sequence (P14679 19-529): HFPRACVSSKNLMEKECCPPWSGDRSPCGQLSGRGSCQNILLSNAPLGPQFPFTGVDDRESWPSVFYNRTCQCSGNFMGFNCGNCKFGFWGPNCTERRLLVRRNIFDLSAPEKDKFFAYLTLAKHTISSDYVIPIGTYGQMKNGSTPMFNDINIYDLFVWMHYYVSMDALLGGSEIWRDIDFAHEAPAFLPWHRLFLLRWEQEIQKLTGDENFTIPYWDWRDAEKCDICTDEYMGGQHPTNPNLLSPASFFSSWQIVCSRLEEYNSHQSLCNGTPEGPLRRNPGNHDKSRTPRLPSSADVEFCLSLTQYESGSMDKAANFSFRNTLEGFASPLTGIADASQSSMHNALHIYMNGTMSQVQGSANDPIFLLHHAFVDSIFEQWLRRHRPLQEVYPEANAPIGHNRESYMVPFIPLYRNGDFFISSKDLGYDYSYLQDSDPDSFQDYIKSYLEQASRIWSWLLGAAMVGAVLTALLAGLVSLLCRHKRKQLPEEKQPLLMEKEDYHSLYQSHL
Description: Activity of tyrosinase in Sk-mel-31 cells. The settings on record: 10 μg to 1 pg, versus control group, FIG. 7. On the procedure:
(§4) In order to evaluate the effect of promoting black hair formation, the activity of tyrosinase was measured in Sk-mel-31, a human melanoma cell, and B16F10, a mouse melanoma cell. The cells were cultivated in an incubator at 37° C. (5% CO2 and 60% relative humidity) while maintaining a density of 1×10^6 cells/ml for Sk-mel-31 and 2×10^5 cells/ml for B16F10 in RPMI-1640 medium (containing 1% penicillin-streptomycin and 10% fetal bovine serum). The cells were stabilized in the incubator for 24 hours, and the culture medium containing FBS was replaced by FBS-free RPMI-1640. The cells were treated with mixed rare earth elements of 10 μg, 1 μg, 100 ng, 10 ng, 1 ng, 100 pg, […] and 1 pg, respectively, and individual rare earth elements of 10 ng. In order to measure the activity of tyrosinase, the cells were cultivated for a given time, centrifuged (100×g) for 10 minutes, and harvested. […] The cells were placed in an ice bath for one hour, and centrifuged with 40,000×g at 4° C. for 20 minutes to obtain a cell extract. 130 μl of 5 mM L-DOPA (L-3,4-dihydroxyphenylalanine) and 120 μl of 25 mM MBTH (3-methyl-2-benzothiazolinone hydrazone) were added to 250 μl of an analysis buffer containing 100 mM potassium phosphate (pH 7.1), 4% N,N-dimethylformamide and 0.1% (v/v) Triton X-100, and reacted in a thermostat at 37° C. for 5 minutes, and then, 100 μg of the cell extract was added thereto, and further reacted for 2 hours. Then, 500 μl of 1 M perchloric acid was added thereto and the mixture was centrifuged with 9,000×g at room temperature for 20 minutes. Then, the supernatant was taken and absorbance was measured at 505 nm.

Assay [6] deals with T2, tyrosinase (Mus musculus, UniProt P11344).
T2 sequence (P11344 19-533): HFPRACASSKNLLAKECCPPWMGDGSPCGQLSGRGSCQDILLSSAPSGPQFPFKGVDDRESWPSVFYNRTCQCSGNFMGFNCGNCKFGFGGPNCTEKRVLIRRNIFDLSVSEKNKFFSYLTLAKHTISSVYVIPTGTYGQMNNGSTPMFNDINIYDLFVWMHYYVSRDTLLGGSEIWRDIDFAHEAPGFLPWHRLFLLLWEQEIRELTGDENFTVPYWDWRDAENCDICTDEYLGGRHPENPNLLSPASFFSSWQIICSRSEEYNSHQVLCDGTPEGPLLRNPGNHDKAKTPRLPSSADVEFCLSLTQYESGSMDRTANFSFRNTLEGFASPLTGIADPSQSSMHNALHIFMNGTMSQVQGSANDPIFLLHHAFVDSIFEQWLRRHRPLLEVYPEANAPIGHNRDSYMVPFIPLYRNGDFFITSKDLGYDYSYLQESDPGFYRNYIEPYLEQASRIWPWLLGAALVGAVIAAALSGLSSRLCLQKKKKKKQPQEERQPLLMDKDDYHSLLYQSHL
Description: Activity of tyrosinase in B16F10 cells. The conditions noted are these: 10 μg to 1 pg, versus control group, FIG. 8. On the procedure: as §4

In assay [7] the test system is tyrosinase. The assay can be described thus: Expression of tyrosinase in B16F10 cells by Western blotting. The conditions noted are these: mouse melanoma cell line; versus control group; FIG. 9. On the procedure:
as §3

Entries after “also recorded” stand apart in the source; their conditions may differ.

From US8715714B2, “Uses of rare earth elements for hair improvement” (Micellbio Co., Ltd., priority 2006, dated 2014) come the findings set out here.

As for `[Lu]` [Lu, lutetium], the melanin production result in assay [1] and in assay [2] was “relatively lower effect” throughout. For the same compound, the “cell proliferation compared with the non-treated group” value in assay [3] (each element of 10 ng, FIG. 2) was “relatively inferior effect”. Besides, the expression of tyrosinase entry in assay [4] and in assay [7] was “relatively lower effect” throughout. For the same compound, the tyrosinase activity result in assay [5] and in assay [6] was “relatively lower effect” in each case.

As for `[Sm]` [Sm, samarium], the melanin production result in assay [1] and in assay [2] was “relatively lower effect” each time. For the same compound, the “cell proliferation compared with the non-treated group” value in assay [3] (each element of 10 ng, FIG. 2) is listed as “relatively inferior effect”. Also, the expression of tyrosinase result in assay [4] and in assay [7] was “relatively lower effect” in each case. The tyrosinase activity result in assay [5] and in assay [6] was “relatively lower effect” throughout.

For the compound `[Gd]` [Gd, gadolinium], the melanin production entry in assay [1] and in assay [2] was “relatively lower effect” throughout. In addition, the “cell proliferation compared with the non-treated group” value is listed as “increased” in assay [3] (10 μg to 1 pg, FIG. 1) and “relatively inferior effect” in assay [3] (each element of 10 ng, FIG. 2). For the same compound, the expression of tyrosinase result in assay [4] and in assay [7] was “relatively lower effect” throughout. Further, the tyrosinase activity result in assay [5] and in assay [6] was “increased; also recorded: relatively lower effect” in each case.

Consider `[Ce]` [Ce, cerium], for which, in assay [2], the melanin production result is recorded as “substantially the same effect; also recorded: most greatly increased”. Further, the “cell proliferation compared with the non-treated group” value is given as “increased” in assay [3] (10 μg to 1 pg, FIG. 1); “up to 1.69 times” in assay [3] (10 μg to 1 pg, FIG. 1, maximum); “most greatly increased” in assay [3] (each element of 10 ng, FIG. 2). Besides, in assay [4], the expression of tyrosinase result is listed as “substantially the same effect; also recorded: most greatly increased”. Also, the tyrosinase activity result in assay [5] and in assay [6] was “increased; also recorded: substantially the same effect as mixed rare earth elements; also recorded: most greatly increased” throughout.

As to `[La]` [La, lanthanum], the melanin production result in assay [1] and in assay [2] was “relatively lower effect” in each case. Besides, the “cell proliferation compared with the non-treated group” value in assay [3] (10 μg to 1 pg, FIG. 1) is “increased”; in assay [3] (each element of 10 ng, FIG. 2) it was “relatively inferior effect”. Also, the expression of tyrosinase result in assay [4] and in assay [7] was “relatively lower effect” each time. Also, the tyrosinase activity entry in assay [5] and in assay [6] was “increased; also recorded: relatively lower effect” in each case.

On to `[Eu]` [Eu, europium], for which the melanin production result in assay [1] and in assay [2] was “substantially the same effect” in each case. Also, the “cell proliferation compared with the non-treated group” value in assay [3] (10 μg to 1 pg, FIG. 1) is recorded as “increased”. Also, the expression of tyrosinase result in assay [4] and in assay [7] was “substantially the same effect” each time. In addition, the tyrosinase activity result in assay [5] and in assay [6] was “increased; also recorded: substantially the same effect as mixed rare earth elements” throughout.

Regarding `[Nd]` [Nd, neodymium], the melanin production result in assay [1] and in assay [2] was “relatively lower effect” in each case. The “cell proliferation compared with the non-treated group” value in assay [3] (each element of 10 ng, FIG. 2) was “relatively inferior effect”. Also, the expression of tyrosinase entry in assay [4] and in assay [7] was “relatively lower effect” in each case. For the same compound, the tyrosinase activity entry in assay [5] and in assay [6] was “relatively lower effect” throughout.
